What all share (experiment): Test A preemergence
Holding throughout (format): in vivo

The subject of experiment [1] is giant foxtail (Setaria faberii). The conditions noted are these: Setaria faberi, pre-emergence, 240 h; for pest or weed control at 125 g/ha: 125 g ai/ha; for pest or weed control at 500 g/ha: 500 g ai/ha; for pest or weed control at 31 g/ha: 31 g ai/ha, 0 to 100 scale (0 no effect, 100 complete control). A digest of the protocol:
(§1)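 In a loam soil and sand blend, planted seeds got a preemergence directed soil spray, and young plants at the one- to two-leaf stage, 2–10 cm high, got a postemergence application; ~10 d greenhouse hold; injury rated visually, 0 = none, 100 = complete control.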

The subject of experiment [2] is pigweed (Amaranthus retroflexus). The conditions noted are these: Amaranthus retroflexus, pre-emergence, 240 h; for pest or weed control at 125 g/ha: 125 g ai/ha; for pest or weed control at 500 g/ha: 500 g ai/ha; for pest or weed control at 31 g/ha: 31 g ai/ha, 0 to 100 scale (0 no effect, 100 complete control).
Experiment [3] relates to barnyardgrass (Echinochloa crus-galli). Conditions: Echinochloa crus-galli, pre-emergence, 240 h; for pest or weed control at 125 g/ha: 125 g ai/ha; for pest or weed control at 500 g/ha: 500 g ai/ha; for pest or weed control at 31 g/ha: 31 g ai/ha, 0 to 100 scale (0 no effect, 100 complete control). A digest of the protocol:
as §1

In the next experiment the test system is Kochia (Kochia scoparia). Conditions: Bassia scoparia, pre-emergence, 240 h; for pest or weed control at 125 g/ha: 125 g ai/ha; for pest or weed control at 500 g/ha: 500 g ai/ha; for pest or weed control at 31 g/ha: 31 g ai/ha, 0 to 100 scale (0 no effect, 100 complete control). A digest of the protocol:
as §1

Experiment [4] concerns ragweed (common ragweed, Ambrosia elatior). The conditions noted are these: Ambrosia artemisiifolia, pre-emergence, 240 h; for pest or weed control at 125 g/ha: 125 g ai/ha; for pest or weed control at 500 g/ha: 500 g ai/ha; for pest or weed control at 31 g/ha: 31 g ai/ha, 0 to 100 scale (0 no effect, 100 complete control). Summed up:
as §1

Experiment [5] has as its system ryegrass, Italian (Italian ryegrass, Lolium multiflorum). Conditions: Lolium multiflorum, pre-emergence, 240 h; for pest or weed control at 125 g/ha: 125 g ai/ha; for pest or weed control at 500 g/ha: 500 g ai/ha; for pest or weed control at 31 g/ha: 31 g ai/ha, 0 to 100 scale (0 no effect, 100 complete control). Summed up: as §1
Where [6] appears, read: preemergence, visual rating after approx. 10 d, 0 to 100 scale where 0 is no effect and 100 is complete control, read-out: Plant response rating, Foxtail, Giant.
Where [7] appears, read: Preemergence, read-out: Plant response rating, Foxtail, Giant.
[8] abbreviates: preemergence, visual rating after approx. 10 d, 0 to 100 scale where 0 is no effect and 100 is complete control, read-out: Plant response rating, Pigweed.
Where [9] appears, read: Preemergence, read-out: Plant response rating, Pigweed.
Where [10] appears, read: preemergence, visual rating after approx. 10 d, 0 to 100 scale where 0 is no effect and 100 is complete control, read-out: Plant response rating, Barnyardgrass.
The mark [11] stands for this setting: Preemergence, read-out: Plant response rating, Barnyardgrass.
The mark [12] stands for this setting: preemergence, visual rating after approx. 10 d, 0 to 100 scale where 0 is no effect and 100 is complete control, read-out: Plant response rating, Kochia.
[13] abbreviates: Preemergence, read-out: Plant response rating, Kochia.
Setting [14] is: preemergence, visual rating after approx. 10 d, 0 to 100 scale where 0 is no effect and 100 is complete control, read-out: Plant response rating, Ragweed.
The mark [15] stands for this setting: Preemergence, read-out: Plant response rating, Ragweed.
[16] abbreviates: preemergence, visual rating after approx. 10 d, 0 to 100 scale where 0 is no effect and 100 is complete control, read-out: Plant response rating, Ryegrass, Italian.
Where [17] appears, read: Preemergence, read-out: Plant response rating, Ryegrass, Italian.

The structures appear in SMILES notation. Where two headings read alike, the source gives them in different places.

This is an account of results in US12077503B2, “Substituted cyclic amides and their use as herbicides” (FMC CORPORATION, priority 2015, dated 2024).

On to `CCc1ccc([C@H]2CNC(=O)[C@@H]2C(=O)Nc2c(F)cccc2F)cc1` [Compound 1248], for which the pest or weed control at 125 g/ha worked out at 0% in experiment [1] (preemergence, visual injury rating, 0 to 100 scale where 0 is no effect and 100 is complete control, approximately 10 d, read-out: Foxtail, Giant plant response rating); 0% in experiment [2] (preemergence, visual injury rating, 0 to 100 scale where 0 is no effect and 100 is complete control, approximately 10 d, read-out: Pigweed plant response rating); 70% in experiment [3] (preemergence, visual injury rating, 0 to 100 scale where 0 is no effect and 100 is complete control, approximately 10 d, read-out: Barnyardgrass plant response rating); 0% in the experiment on Kochia (Kochia scoparia) (preemergence, visual injury rating, 0 to 100 scale where 0 is no effect and 100 is complete control, approximately 10 d, read-out: Kochia plant response rating); 0% in experiment [4] (preemergence, visual injury rating, 0 to 100 scale where 0 is no effect and 100 is complete control, approximately 10 d, read-out: Ragweed plant response rating); 0% in experiment [5] (preemergence, visual injury rating, 0 to 100 scale where 0 is no effect and 100 is complete control, approximately 10 d, read-out: Ryegrass, Italian plant response rating). The pest or weed control at 500 g/ha was 50% in experiment [1] (preemergence, 0 to 100 scale where 0 is no effect and 100 is complete control, read-out: Foxtail, Giant plant response rating); 0% in experiment [2] (preemergence, 0 to 100 scale where 0 is no effect and 100 is complete control, read-out: Pigweed plant response rating); 90% in experiment [3] (preemergence, 0 to 100 scale where 0 is no effect and 100 is complete control, read-out: Barnyardgrass plant response rating); 0% in the experiment on Kochia (Kochia scoparia) (preemergence, 0 to 100 scale where 0 is no effect and 100 is complete control, read-out: Kochia plant response rating); 0% in experiment [4] (preemergence, 0 to 100 scale where 0 is no effect and 100 is complete control, read-out: Ragweed plant response rating); 0% in experiment [5] (preemergence, 0 to 100 scale where 0 is no effect and 100 is complete control, read-out: Ryegrass, Italian plant response rating).
`CN1C[C@H](c2ccc(C(F)(F)F)c(Br)c2)[C@@H](C(=O)Nc2cccc(F)c2F)C1=O` [Compound 804]: the pest or weed control at 125 g/ha is 80% in experiment [1] (setting [6]); 60% in experiment [2] (setting [8]); 90% in experiment [3] (setting [10]); 20% in the experiment with Kochia (Kochia scoparia) (setting [12]); 0% in experiment [4] (setting [14]); 50% in experiment [5] (setting [16]). For the same compound, the pest or weed control at 31 g/ha in experiment [1] (setting [7]) stood at 70%; in experiment [2] (setting [9]), 0%; in experiment [3] (setting [11]), 70%; in the experiment on Kochia (Kochia scoparia) (setting [13]) it was 0%; in experiment [4] (setting [15]), 0%; in experiment [5] (setting [17]), 40%.
As for `CN1CC[C@H](c2cccc(OC(F)(F)F)c2)[C@@H](C(=O)Nc2ccccc2C(F)(F)F)C1=O` [Compound 806], the pest or weed control at 125 g/ha (in experiment [1] (setting [6]); in experiment [2] (setting [8]); in experiment [3] (setting [10]); with Kochia (Kochia scoparia) (setting [12]); in experiment [4] (setting [14]); in experiment [5] (setting [16])) was 0% in each case. In addition, the pest or weed control at 31 g/ha (in experiment [1] (setting [7]); in experiment [2] (setting [9]); in experiment [3] (setting [11]); in the experiment on Kochia (Kochia scoparia) (setting [13]); in experiment [4] (setting [15]); in experiment [5] (setting [17])) was 0% throughout.
For `O=C1NC[C@H](c2ccc3c(c2)CCO3)[C@H]1C(=O)Nc1ccccc1F` [Compound 786], the pest or weed control at 125 g/ha stood at 90% in experiment [1] (setting [6]); 0% in experiment [2] (setting [8]); 80% in experiment [3] (setting [10]); 0% in the experiment with Kochia (Kochia scoparia) (setting [12]); 0% in experiment [4] (setting [14]); 0% in experiment [5] (setting [16]). The pest or weed control at 500 g/ha worked out at 90% in experiment [1] (Preemergence, visual injury vs untreated controls after approximately 10 d, read-out: Foxtail, Giant plant response rating (0 to 100 scale where 0 is no effect and 100 is complete control)); 0% in experiment [2] (Preemergence, visual injury vs untreated controls after approximately 10 d, read-out: Pigweed plant response rating (0 to 100 scale where 0 is no effect and 100 is complete control)); 90% in experiment [3] (Preemergence, visual injury vs untreated controls after approximately 10 d, read-out: Barnyardgrass plant response rating (0 to 100 scale where 0 is no effect and 100 is complete control)); 0% in the experiment on Kochia (Kochia scoparia) (Preemergence, visual injury vs untreated controls after approximately 10 d, read-out: Kochia plant response rating (0 to 100 scale where 0 is no effect and 100 is complete control)); 0% in experiment [4] (Preemergence, visual injury vs untreated controls after approximately 10 d, read-out: Ragweed plant response rating (0 to 100 scale where 0 is no effect and 100 is complete control)); 0% in experiment [5] (Preemergence, visual injury vs untreated controls after approximately 10 d, read-out: Ryegrass, Italian plant response rating (0 to 100 scale where 0 is no effect and 100 is complete control)).
With `COc1cc([C@H]2CN(C)C(=O)[C@@H]2C(=O)Nc2ccccc2SC)ccc1C(F)(F)F` [Compound 769], the pest or weed control at 125 g/ha in experiment [1] (setting [6]) was determined as 90%; in experiment [2] (setting [8]), 30%; in experiment [3] (setting [10]), 70%; in the experiment with Kochia (Kochia scoparia) (setting [12]) it was 30%; in experiment [4] (setting [14]), 30%; in experiment [5] (setting [16]), 0%. In addition, the pest or weed control at 500 g/ha in experiment [1] (preemergence, 0 to 100 scale, 0 = no effect, 100 = complete control, read-out: Plant response rating, Foxtail, Giant) was 100%; in experiment [2] (preemergence, 0 to 100 scale, 0 = no effect, 100 = complete control, read-out: Plant response rating, Pigweed), 80%; in experiment [3] (preemergence, 0 to 100 scale, 0 = no effect, 100 = complete control, read-out: Plant response rating, Barnyardgrass), 100%; in the experiment on Kochia (Kochia scoparia) (preemergence, 0 to 100 scale, 0 = no effect, 100 = complete control, read-out: Plant response rating, Kochia), 70%; in experiment [4] (preemergence, 0 to 100 scale, 0 = no effect, 100 = complete control, read-out: Plant response rating, Ragweed) it was 70%.
